The values that follow are results of earlier work, collected in US7303775B1, “Carbohydrate ruminant feed energy supplement and method” (Penn State Research Foundation, priority 2003, dated 2007).

One data set concerns rat liver. The note with it: compared with glucose.
For a further data set, the system named is insulin. The note with it: compared with sucrose or glucose.
In another data set the test system is glucagon. The conditions noted are these: oral, same dose, humans.

For `O=C(CO)[C@@H](O)[C@H](O)[C@H](O)CO` [fructose], the “rate of conversion to fat by rat liver” value in the data set on rat liver is “much higher rate”. Besides, in the data set with insulin, the “potency as insulin secretagogue” value is listed as “less potent”. The effect on glucagon entry in the data set with glucagon was “did not”.
`OC[C@H]1O[C@@](CO)(O[C@H]2O[C@H](CO)[C@@H](O)[C@H](O)[C@H]2O)[C@@H](O)[C@@H]1O` [sucrose, reference compound]: the effect on glucagon entry in the data set with glucagon is listed as “decline”.
